Assay results reported in US8247351B2, “Insecticidal compositions having improved effect” (Bayer Cropscience AG, priority 2005, dated 2012).

Experiments:
Type in all cases: in vivo
Myzus persicae [1] = test: Myzus persicae test, Example F (sprayed to runoff, ammonium salt plus penetrant)
Experimental: (§1) Solvent: 7 parts by weight dimethylformamide
(§2) Emulsifier: 2 parts by weight alkylaryl polyglycol ether
An appropriate preparation of active ingredient is prepared by mixing 1 part by weight of active ingredient with the stated amounts of solvent and emulsifier and diluting the concentrate with water to the desired concentration. For the application with ammonium salts or phosphonium salts and penetrant (rapeseed oil methyl ester 500 EW), they are each added in a concentration of 1000 ppm to the spray liquor.
After the desired time the destruction in % is ascertained. 100% means that all of the animals have been killed; 0% means that no animals have been killed.

Aphis gossypii [2] = test: Aphis gossypii test, Example E (sprayed to runoff, ammonium salt boosting)
Experimental: as §1, §2
(§3) An appropriate preparation of active ingredient is prepared by mixing 1 part by weight of active ingredient with the stated amounts of solvent and emulsifier and diluting the concentrate with emulsifier-containing water to the desired concentration. For the application with ammonium salts or phosphonium salts, these salts are added in a concentration of 1000 ppm to the spray liquor.
(§4) Cotton plants (Gossypium hirsutum) heavily infested by the cotton aphid (Aphis gossypii) are sprayed to runoff with the preparation of active ingredient at the desired concentration.
(§5) After the desired time the destruction in % is ascertained. 100% means that all of the aphids have been killed; 0% means than no aphids were killed.

Myzus persicae [3] = test: Myzus persicae test, Example D (sprayed to runoff, ammonium salt boosting)
Experimental: as §1, §2
as §3, with “with” for “with emulsifier-containing”
Paprika plants (Capsicum annum) heavily infested by the green peach aphid (Myzus persicae) are treated by being. sprayed to runoff with the preparation of active ingredient at the desired concentration. After the desired time the destruction in % is ascertained. 100% means that all of the animals have been killed; 0% means that no animals have been killed.

Aphis gossypii [4] = test: Aphis gossypii test, Example G (sprayed to runoff, ammonium salt plus penetrant)
Experimental: as §1, §2
An appropriate preparation of active ingredient is prepared by mixing 1 part by weight of active ingredient with the stated amounts of solvent and emulsifier and diluting the concentrate with emulsifier-containing water to the desired concentration. For the application with ammonium salts or phosphonium salts and penetrants (rapeseed oil methyl esters 500 EW), they are each added in a concentration of 1000 ppm a.i. to the spray liquor.
as §4, §5

[5] = 4 ppm active ingredient, +AS (1000 ppm)
[6] = 4 ppm active ingredient, +RME (1000 ppm)
[7] = 4 ppm active ingredient, +RME +AS (each 1000 ppm)
[8] = 4 ppm active ingredient, no additive
[9] = 20 ppm active ingredient, +AS (1000 ppm)
[10] = 20 ppm active ingredient, no additive
[11] = 0.8 ppm active ingredient, +AS (1000 ppm)
[12] = 0.8 ppm active ingredient, no additive
[13] = 0.8 ppm active ingredient, +RME (1000 ppm)
[14] = 0.8 ppm active ingredient, +RME +AS (each 1000 ppm)
[15] = 20 ppm active ingredient, +RME (1000 ppm)
[16] = 20 ppm active ingredient, +RME +AS (each 1000 ppm)

Structure (SMILES) | Degree of destruction/% after 6 days (Myzus persicae [1]; [5]) [%] | Degree of destruction/% after 6 days (Myzus persicae [1]; [6]) [%] | Degree of destruction/% after 6 days (Myzus persicae [1]; [7]) [%] | Degree of destruction/% after 6 days (Myzus persicae [1]; [8]) [%] | Degree of destruction/% after 6 days (Aphis gossypii [2]; [5]) [%] | Degree of destruction/% after 6 days (Aphis gossypii [2]; [8]) [%] | Degree of destruction/% after 6 days (Aphis gossypii [2]; [9]) [%] | Degree of destruction/% after 6 days (Aphis gossypii [2]; [10]) [%] | also measured
Cc1ccc(-c2ccc(Cl)cc2)cc1C1=C(O)C(C)(C)NC1=O [Example I-1-a-3] | 20 | 10 | 90 | 0 | 35 | 5 | 80 | 20 | Degree of destruction/% after 6 days (Myzus persicae [3]; [5]): 90%; Degree of destruction/% after 6 days (Myzus persicae [3]; [8]): 0%; Degree of destruction/% after 6 days (Myzus persicae [3]; [9]): 75%; Degree of destruction/% after 6 days (Myzus persicae [3]; [10]): 60%
CO[C@@H]1CCC[C@]2(C1)NC(=O)C(c1c(C)cc(C)cc1C)=C2O [Example I-1-a-6] | – | – | – | – | 55 | 25 | – | – | Degree of destruction/% after 6 days (Aphis gossypii [4]; [5]): 55%; Degree of destruction/% after 6 days (Aphis gossypii [4]; [6]): 50%; Degree of destruction/% after 6 days (Aphis gossypii [4]; [7]): 80%; Degree of destruction/% after 6 days (Aphis gossypii [4]; [8]): 25%; Degree of destruction/% after 6 days (Aphis gossypii [2]; [11]): 30%; Degree of destruction/% after 6 days (Aphis gossypii [2]; [12]): 15%
COC1CCC2(CC1)NC(=O)C(c1c(C)cc(C)c(C)c1C)=C2O (stereo not shown) [Example I-1-a-9] | – | – | – | – | – | – | – | – | Degree of destruction/% after 6 days (Myzus persicae [1]; [11]): 5%; Degree of destruction/% after 6 days (Myzus persicae [1]; [13]): 35%; Degree of destruction/% after 6 days (Myzus persicae [1]; [14]): 75%; Degree of destruction/% after 6 days (Myzus persicae [1]; [12]): 0%
COC1CCC2(CC1)NC(=O)C(c1cc(C)c(Cl)cc1C)=C2O (stereo not shown) [Example I-1-a-10] | 35 | 75 | 85 | 0 | 65 | 20 | 75 | 40 | Degree of destruction/% after 6 days (Myzus persicae [3]; [5]): 35%; Degree of destruction/% after 6 days (Myzus persicae [3]; [8]): 0%; Degree of destruction/% after 6 days (Myzus persicae [3]; [9]): 85%; Degree of destruction/% after 6 days (Myzus persicae [3]; [10]): 40%
CO[C@H]1CC[C@]2(CC1)NC(=O)C(c1cc(C)ccc1C)=C2O [Example I-1-a-13] | 0 | 65 | 75 | 0 | – | – | – | – | Degree of destruction/% after 6 days (Myzus persicae [1]; [11]): 0%; Degree of destruction/% after 6 days (Myzus persicae [1]; [13]): 0%; Degree of destruction/% after 6 days (Myzus persicae [1]; [14]): 30%; Degree of destruction/% after 6 days (Myzus persicae [1]; [12]): 0%
COCC1CCC2(CC1)NC(=O)C(c1c(C)cc(C)cc1C)=C2O (stereo not shown) [Example I-1-a-14] | – | – | – | – | 90 | 55 | – | – | Degree of destruction/% after 6 days (Aphis gossypii [2]; [11]): 40%; Degree of destruction/% after 6 days (Aphis gossypii [2]; [12]): 25%
COCC1CCC2(CC1)NC(=O)C(c1c(C)cc(Cl)cc1C)=C2O (stereo not shown) [Example I-1-a-15] | – | – | – | – | 75 | 40 | 95 | 80 | Degree of destruction/% after 6 days (Myzus persicae [1]; [11]): 0%; Degree of destruction/% after 6 days (Myzus persicae [1]; [13]): 50%; Degree of destruction/% after 6 days (Myzus persicae [1]; [14]): 80%; Degree of destruction/% after 6 days (Myzus persicae [1]; [12]): 15%
COCC1CCC2(CC1)NC(=O)C(c1c(C)cc(Cl)cc1Cl)=C2O (stereo not shown) [Example I-1-a-16] | – | – | – | – | 75 | 40 | 85 | 75 | Degree of destruction/% after 6 days (Aphis gossypii [4]; [9]): 85%; Degree of destruction/% after 6 days (Aphis gossypii [4]; [15]): 95%; Degree of destruction/% after 6 days (Aphis gossypii [4]; [16]): 99%; Degree of destruction/% after 6 days (Aphis gossypii [4]; [10]): 75%
COCCC1CCC2(CC1)NC(=O)C(c1c(C)cc(C)cc1C)=C2O (stereo not shown) [Example I-1-a-17] | – | – | – | – | 80 | 50 | 85 | 70 | –
COCC1CCC2(CC1)NC(=O)C(c1cc(C)c(Cl)cc1C)=C2O (stereo not shown) [Example I-1-a-18] | 0 | 35 | 55 | 0 | – | – | – | – | –
CCOC(=O)OC1=C(c2c(C)cc(C)cc2C)C(=O)NC12CCC(COC)CC2 (stereo not shown) [Example I-1-c-2] | – | – | – | – | – | – | – | – | Degree of destruction/% after 6 days (Aphis gossypii [4]; [9]): 85%; Degree of destruction/% after 6 days (Aphis gossypii [4]; [15]): 90%; Degree of destruction/% after 6 days (Aphis gossypii [4]; [16]): 99%; Degree of destruction/% after 6 days (Aphis gossypii [4]; [10]): 85%
